Consider two compounds from patent publication US10426751B2, “Allosteric activators for treatment of phenylketonuria” (MCMASTER UNIVERSITY, priority 2015, dated 2019).

Holding throughout (assay type): biochemical
One assay concerns the target T1, WT-PAH (Homo sapiens, UniProt P00439).
T1 construct: made in house; the paragraph itself says 'eukaryotic cell cultures' (pMAL vector, Martinez laboratory, University of Bergen)
T1 sequence (P00439 1-452): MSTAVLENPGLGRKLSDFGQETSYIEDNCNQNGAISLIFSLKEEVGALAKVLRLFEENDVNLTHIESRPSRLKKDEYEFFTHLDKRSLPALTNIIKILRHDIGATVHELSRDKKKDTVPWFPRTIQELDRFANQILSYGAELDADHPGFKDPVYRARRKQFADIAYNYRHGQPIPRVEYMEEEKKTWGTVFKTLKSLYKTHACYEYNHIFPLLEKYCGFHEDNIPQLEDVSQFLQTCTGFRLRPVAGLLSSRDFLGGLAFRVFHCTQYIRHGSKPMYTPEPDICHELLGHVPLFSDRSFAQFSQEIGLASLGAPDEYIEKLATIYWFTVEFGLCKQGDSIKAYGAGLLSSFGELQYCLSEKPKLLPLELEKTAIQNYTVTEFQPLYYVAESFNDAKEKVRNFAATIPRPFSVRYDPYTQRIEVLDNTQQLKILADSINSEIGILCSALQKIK
Nature of the assay: Chaperone (refolding) assay: PAH activity after dilution from 6.0 M to 0.5 M GndCl. Particulars: ligand 20 μM. On the procedure: (§1) For instance, a recovery of 50% of residual enzyme activity was achieved without ligand when PAH was incubated in 8.0 M urea after its dilution to 0.5 M urea to trigger protein refolding. In order to further reduce enzyme reversibility, the recovery of PAH activity was subsequently assessed when it was incubated using 6.0 M GndCl for 10 min and subsequently diluted to 0.5 M GndCl in the presence or absence of screen-positive ligands (20 μM) in enzyme reaction buffer with PAH activity measurements performed by CE as described previously. […] Two lead compounds and several analogs of SA were subsequently tested using two different mutants of PAH (I65T and R261Q) without chemical denaturants after the two-tiered screening.

A further assay has as its target T2, I65T PAH mutant (Homo sapiens, UniProt P00439, I65T).
T2 construct: made in house; the paragraph itself says 'eukaryotic cell cultures' (pMAL vector)
T2 sequence (P00439 1-452 I65T): T1 sequence (P00439 1-452) with I65T
Nature of the assay: PKU-mutant activity enhancement without chemical denaturants, CE-UV. Particulars: ligand 20 μM, no denaturant. On the procedure: (§2) Expression of recombinant human WT-PAH and two PAH mutants ([…]) as fusion protein with maltose-binding protein in […] using pMAL expression vector was performed by the Martinez laboratory at the University of Bergen as described in Svebak et al., Biochem. J., 1995, 306, 589-597. Briefly, purification of the fusion proteins expressed in the pMAL vector system was performed using affinity chromatography followed by size-exclusion chromatography to remove low molecular weight components. Subsequently, the fusion proteins were cleaved by the restriction protease factor Xa and then phosphorylated by cyclic adenosine monophosphate (cAMP)-dependent protein kinase. The two clinically relevant PAH mutants, I65T and R261Q comprise single-point mutations in the regulatory and catalytic domain, respectively which are associated with highly variable phenotypes ranging from mild to classical PKU. For instance, patients with R261Q genotypes are reported to have inconsistent responses to BH4 therapy. In this work, I65T and R261Q PAH mutants were measured to have residual catalytic activities of (35±1)% and (5±0.5)% relative to WT PAH under standardized conditions (i.e., enzyme concentrations, assay buffer etc.), respectively. Stock solutions of WT-PAH and PAH mutants were prepared in enzyme reaction buffer (20 mM HEPES pH 7.0, 200 mM NaCl), and divided into separate 10 μL aliquots in 0.5 mL sterilized centrifuge tubes prior to storage at −80° C. Note that all enzyme assays were performed on aliquots of frozen enzymes thawed slowly in the fridge prior to daily use.
(§3) Tetrameric human phenylalanine hydroxylase (PAH) enzyme kinetic assays were performed off-line under standardized conditions prior to quantification of Tyr formation by CE with UV detection. Enzyme assays were performed by first mixing together Phe (1 mM), catalase (100 nM) and PAH (0.25 μM/subunit) in a reaction buffer (20 mM HEPES and 200 mM NaCl, pH 7.0) that were equilibrated at 25° C. for 4 min. Then, ferrous (Fe^2+) ammonium sulfate (100 μM) was added to the solution for 1 min and the reaction was subsequently initiated by addition of BH4 ([…]) with DTT (5 mM) using a total volume of 100 μL. The reaction mixture was then vortexed for 60 s followed by sonication for 2 min prior to centrifugation for 10 s at 4 g and storage in a refrigerator (+4° C.). An aliquot (20 μL) was withdrawn from the quenched enzyme reaction and placed in a micro vial containing Me-Tyr as IS (100 μM) prior to CE analysis. The stability of the quenched enzyme reaction was confirmed by intermittent analysis of PAH activity over 6 h at room temperature, and no significant changes in the Tyr/IS or Phe/Tyr response ratio were measured. Enzymatic reactions were performed for both WT-PAH and two PAH mutants by pre-equilibrating each ligand for 10 min prior to addition of ferrous ion and BH4/DDT as described in enzyme reaction protocol in order to assess for ligand-induced PAH inhibition or activation.
as §1

For a further assay, the target named is T3, R261Q PAH mutant (Homo sapiens, UniProt P00439, R261Q).
T3 construct: made in house; the paragraph itself says 'eukaryotic cell cultures' (pMAL vector)
T3 sequence (P00439 1-452 R261Q): T1 sequence (P00439 1-452) with R261Q
The description is as above. Particulars: ligand 20 μM, no denaturant. On the procedure: as §2, §3, §1

Positions count from the first letter of the chain named.

`Nc1c(-c2ccc3ccccc3n2)c2ccc([N+](=O)[O-])cc2c(=O)n1Cc1ccccc1` [compound III, 3-amino-2-benzyl-7-nitro-4-(2-quinolyl)-1,2-dihydroisoquinolin-1-one]: the “increase in WT-PAH activity after refolding relative to ligand-free apo-PAH” value on WT-PAH was “about 5 fold”. Besides, at I65T PAH mutant (listed as HI), the “activity enhancement of I65T PAH mutant” value is listed as approximately 1.5 fold. At R261Q PAH mutant (listed as HI), the “activity enhancement of R261Q PAH mutant” value was approximately 1.5 fold.
As to `Cc1ccnc(-n2c(=S)[nH]c3sc(C)c(C)c3c2=O)c1` [compound IV, 5,6-dimethyl-3-(4-methyl-2-pyridinyl)-2-thioxo-2,3-dihydrothieno[2,3-d] pyrimidin-4(1H)-one], on WT-PAH, the “increase in WT-PAH activity after refolding relative to ligand-free apo-PAH” value is recorded as approximately 1.5 fold. Moreover, at I65T PAH mutant, the “activity enhancement of I65T PAH mutant” value is on record as approximately 1.5 fold. Also, on R261Q PAH mutant, the “activity enhancement of R261Q PAH mutant” value is given as approximately 1.5 fold.
